Experimental data taken from patent publication US7612107B2, “Treatment and inhibition of disease conditions using flexible heteroarotinoids” (The Board of Regents of the University of Oklahoma, priority 2005, dated 2009).

Assays:
[1] = system: organotypic cultures of normal endometrial cells; assay: Chemoprevention in DMBA-treated endometrial organotypic cultures; assay type: cell-based; settings: histology and karyometric analysis
From the text: Untreated: The specimen is cellular with both surface and mid-gel cells presence in abundance. Two cell types are clearly present. One appears to be stromal. The nuclei are thin and spindle shaped and the cytoplasm is similar. When cut in cross-section the nuclei are very small and round and hyperchromatic. The other cells have large, oval to almost boxcar nuclei with small nucleoli and abundant cytoplasm. Numerous mitosis are present. The epithelial cells are almost syncitial in nature and appear to cling to one another. With DMBA Carcinogen: The specimen is cellular. The cells present have lost their cytoplasm. There is more pleomorphism of the cells and many are very hyperchromatic. Mitoses are very numerous-approximately 2× the number in untreated. Cells no longer are together but are distinct one from another. Stromal cells intermix with the epithelial cells. […]
FIG. 19 illustrates a typical experiment in which organotypic cultures of normal endometrial cells were treated with a carcinogen called DMBA and developed the cancer phenotype. […] All segmented nuclei were then subjected to texture feature extraction using TICAS software, resulting in 95 texture features for each nucleus that were subjected to quantitative analysis.

[2] = system: Caki renal cancer xenografts; assay: Caki renal cancer xenograft tumor model; assay type: in vivo, mouse
Procedure: (§1) FIG. 12. Various Xenograft tumors stained with CD34 antibodies (brown) to identify endothelium. The B16 mouse melanoma cell line was established as a syngeneic tumor in an immunocompetent mouse model and the human Caki renal cancer and A2780 ovarian xenograft tumors in immunocompromised mice. The treated mice were gavaged with 60 mg/kg/day SHetA2 and the untreated were gavaged with solvent only. The tumors were excised and sections were stained with the anti-CD34 antibody to detect endothelial cells (brown stain).
FIG. 20. Mice harboring Caki renal cancer xenografts were treated with 60 mg/kg/day SHetA2 or PEG400 vehicle for 15 days. After another 15 days of growth, the tumors were removed, fixed, embedded and sections. Sections were stained with PAS to identify glycoproteins and lysosomes. The untreated tumor is on the left and the treated tumor is on the right.
(§2) Survival was the primary endpoint of those studies. […] Tumor growth was the primary endpoint of the renal cancer study.

[3] = system: A2780 ovarian xenograft tumors; assay: A2780 ovarian xenograft tumor model; assay type: in vivo, mouse; settings: ovarian cancer model
Procedure: as §1, §2

Thrombospondin 4 (TSP4) = assay: Real time rt-PCR and Western blot validation, thrombospondin 4; assay type: cell-based; settings: OVCAR-3 1 μM (rt-PCR); A2780 10 μM (Western)

## CC1(C)CC(C)(C)c2cc(NC(=S)Nc3ccc([N+](=O)[O-])cc3)ccc2S1 [SHetA2]
[1]
  Development of the cancer phenotype after DMBA carcinogen: prevented the development of this phenotype
[2]; 60 mg/kg/day for 15 days, treated vs untreated tumors
  PAS stain of renal xenograft tumors: increase in general glycoprotein expression and lysosomal staining
[2]; renal cancer model
  Tumor growth: decreased tumor growth
[2]; renal, oral 60 mg/kg/day
  Development of blood vessels inside tumors (anti-CD34 staining): inhibited the development of blood vessels
[3]
  Survival: improved survival
Thrombospondin 4 (TSP4)
  Expression of TSP-4 at the RNA and protein levels: inhibit expression
